Source: patent US8916702B2 (priority 2012, dated 2014)

system: HCV pseudoparticles (genotype 1a HCV E1 and E2 envelope, H77C isolate); experiment: microbe, parasite or virus in culture; type: cell-based; details: Hepatitis C virus, Huh-7, 48 h, HCV pseudoparticle infection of Huh7 cells, luciferase 2 days after infection; average of duplicates

Structure (SMILES)	EC50 [nM]
COC(=O)[C@H](CNC(=O)C(=O)NCC1CCCN(C(=O)OC(C)(C)C)C1)NC(=O)c1ccc(Nc2nc(NC3(c4ccc(Cl)cc4)CC3)nc(OCC(F)(F)F)n2)cc1 (stereo partly shown) [Compound 1452]	1.83
COC(=O)[C@H](CNC(=O)C(=O)NCC1CCOCC1)NC(=O)c1ccc(Nc2nc(NC3(c4ccc(Cl)cc4)CC3)nc(OCC(F)(F)F)n2)cc1 [Compound 1456]	3.45
COC(=O)[C@H](CNC(=O)C(=O)NCC1CCCOC1)NC(=O)c1ccc(Nc2nc(NC3(c4ccc(Cl)cc4)CC3)nc(OCC(F)(F)F)n2)cc1 (stereo partly shown) [Compound 1458]	3.2
O=C(Nc1ccc(C(=O)O)cc1)C(=O)NC1CCCC1CNC(=O)c1ccc(Nc2nc(NC3(c4ccc(Cl)cc4)CC3)nc(OCC(F)(F)F)n2)cc1 (stereo not shown) [Compound 1464]	0.48
CC(C)(C)CC(=O)N[C@H]1CC[C@@H](CNC(=O)C(=O)NC[C@H](NC(=O)c2ccc(Nc3nc(NC4(c5ccc(Cl)cc5)CC4)nc(OCC(F)(F)F)n3)cc2)C(=O)O)CC1 [Compound 1469]	2.3
CC(C)(CNC(=O)C(=O)Nc1cccc(CCC(=O)O)c1)CNC(=O)c1ccc(Nc2nc(NC3(c4ccc(Cl)cc4)CC3)nc(OCC(F)(F)F)n2)cc1 [Compound 1482]	0.17
COC(=O)[C@H](CCNC(=O)C(=O)Nc1cc(F)c(F)c(F)c1)NC(=O)c1ccc(Nc2nc(NC3(c4ccc(Cl)cc4)CC3)nc(OCC(F)(F)F)n2)cc1 [Compound 1504]	< 2.54

same assay, conditions: Hepatitis C virus, Huh-7, 48 h, read-out: Activity (EC50 class), HCV pseudoparticle infection of Huh7 cells, luciferase 2 days after infection; EC50 expressed as class A/B

Structure (SMILES)	EC50 [nM]
CC(C)(C)CNC(=O)C(=O)NC[C@H](NC(=O)c1ccc(Nc2nc(NC3(c4ccc(Cl)cc4)CC3)nc(OCC(F)(F)F)n2)cc1)C(=O)O [Compound 1450]	0.01 to 10
COC(=O)[C@H](CNC(=O)C(=O)NCC1CCCCCC1)NC(=O)c1ccc(Nc2nc(NC3(c4ccc(Cl)cc4)CC3)nc(OCC(F)(F)F)n2)cc1 [Compound 1451]	0.01 to 10
COC(=O)[C@H](CNC(=O)C(=O)NCC1CCCN(C(=O)OC(C)(C)C)C1)NC(=O)c1ccc(Nc2nc(NC3(c4ccc(Cl)cc4)CC3)nc(OCC(F)(F)F)n2)cc1 (stereo partly shown) [Compound 1452]	0.01 to 10
COC(=O)[C@H](CNC(=O)C(=O)NCC1CC[C@H]2C[C@@H]1C2(C)C)NC(=O)c1ccc(Nc2nc(NC3(c4ccc(Cl)cc4)CC3)nc(OCC(F)(F)F)n2)cc1 (stereo partly shown) [Compound 1453]	0.01 to 10
CCC(CC)CNC(=O)C(=O)NC[C@H](NC(=O)c1ccc(Nc2nc(NC3(c4ccc(Cl)cc4)CC3)nc(OCC(F)(F)F)n2)cc1)C(=O)OC [Compound 1454]	0.01 to 10
COC(=O)[C@H](CNC(=O)C(=O)N[C@H](C)C1CCCCC1)NC(=O)c1ccc(Nc2nc(NC3(c4ccc(Cl)cc4)CC3)nc(OCC(F)(F)F)n2)cc1 [Compound 1455]	0.01 to 10
COC(=O)[C@H](CNC(=O)C(=O)NCC1CCOCC1)NC(=O)c1ccc(Nc2nc(NC3(c4ccc(Cl)cc4)CC3)nc(OCC(F)(F)F)n2)cc1 [Compound 1456]	0.01 to 10
CC(C)(CNC(=O)C(=O)Nc1ccc(C(=O)O)cc1)CNC(=O)c1ccc(Nc2nc(NC3(c4ccc(Cl)cc4)CC3)nc(OCC(F)(F)F)n2)cc1 [Compound 1457]	0.01 to 10
COC(=O)[C@H](CNC(=O)C(=O)NCC1CCCOC1)NC(=O)c1ccc(Nc2nc(NC3(c4ccc(Cl)cc4)CC3)nc(OCC(F)(F)F)n2)cc1 (stereo partly shown) [Compound 1458]	0.01 to 10
CCC1(CC)CC1CNC(=O)C(=O)NC[C@H](NC(=O)c1ccc(Nc2nc(NC3(c4ccc(Cl)cc4)CC3)nc(OCC(F)(F)F)n2)cc1)C(=O)OC (stereo partly shown) [Compound 1459]	0.01 to 10
COC(=O)[C@H](CNC(=O)C(=O)NCC1CC1)NC(=O)c1ccc(Nc2nc(NC3(c4ccc(Cl)cc4)CC3)nc(OCC(F)(F)F)n2)cc1 [Compound 1461]	0.01 to 10
O=C(NCC1CC1)C(=O)NC1CCCC1CNC(=O)c1ccc(Nc2nc(NC3(c4ccc(Cl)cc4)CC3)nc(OCC(F)(F)F)n2)cc1 (stereo not shown) [Compound 1462]	0.01 to 10
O=C(Nc1ccc(C(=O)O)cc1)C(=O)NC1CCCC1CNC(=O)c1ccc(Nc2nc(NC3(c4ccc(Cl)cc4)CC3)nc(OCC(F)(F)F)n2)cc1 (stereo not shown) [Compound 1464]	0.01 to 10
O=C(Nc1ccc(F)cc1)C(=O)NC1CCCC1CNC(=O)c1ccc(Nc2nc(NC3(c4ccc(Cl)cc4)CC3)nc(OCC(F)(F)F)n2)cc1 (stereo not shown) [Compound 1465, N^1-(2-((4-((4-((1-(4-chlorophenyl)cyclopropyl)amino)-6-(2,2,2-trifluoroethoxy)-1,3,5-triazin-2-yl)amino)benzamido)methyl)cyclopentyl)-N^2-(4-fluorophenyl)oxalamide]	0.01 to 10
O=C(NCC1CC1)C(=O)NC[C@H](NC(=O)c1ccc(Nc2nc(NC3(c4ccc(Cl)cc4)CC3)nc(OCC(F)(F)F)n2)cc1)C(=O)O [Compound 1467]	0.01 to 10
CC(C)(C)OC(=O)N1CCCC(CNC(=O)C(=O)NC[C@H](NC(=O)c2ccc(Nc3nc(NC4(c5ccc(Cl)cc5)CC4)nc(OCC(F)(F)F)n3)cc2)C(=O)O)C1 (stereo partly shown) [Compound 1468]	0.01 to 10
CC(C)(C)CC(=O)N[C@H]1CC[C@@H](CNC(=O)C(=O)NC[C@H](NC(=O)c2ccc(Nc3nc(NC4(c5ccc(Cl)cc5)CC4)nc(OCC(F)(F)F)n3)cc2)C(=O)O)CC1 [Compound 1469]	0.01 to 10
O=C(NCC1CCCOC1)C(=O)NC[C@H](NC(=O)c1ccc(Nc2nc(NC3(c4ccc(Cl)cc4)CC3)nc(OCC(F)(F)F)n2)cc1)C(=O)O (stereo partly shown) [Compound 1470]	0.01 to 10
CCC1(CC)CC1CNC(=O)C(=O)NC[C@H](NC(=O)c1ccc(Nc2nc(NC3(c4ccc(Cl)cc4)CC3)nc(OCC(F)(F)F)n2)cc1)C(=O)O (stereo partly shown) [Compound 1471]	0.01 to 10
O=C(NC[C@H](NC(=O)c1ccc(Nc2nc(NC3(c4ccc(Cl)cc4)CC3)nc(OCC(F)(F)F)n2)cc1)C(=O)O)C(=O)NC1(C2CCCCC2)CC1 [Compound 1472]	0.01 to 10
CC1(C)[C@H]2CCC(CNC(=O)C(=O)NC[C@H](NC(=O)c3ccc(Nc4nc(NC5(c6ccc(Cl)cc6)CC5)nc(OCC(F)(F)F)n4)cc3)C(=O)O)[C@@H]1C2 (stereo partly shown) [Compound 1473]	0.01 to 10
O=C(NC[C@H]1CCC[C@H]1NC(=O)c1ccc(Nc2nc(NC3(c4ccc(Cl)cc4)CC3)nc(OCC(F)(F)F)n2)cc1)C(=O)Nc1ccc(F)cc1 [Compound 1474]	0.01 to 10
C[C@@H](NC(=O)C(=O)NC[C@H](NC(=O)c1ccc(Nc2nc(NC3(c4ccc(Cl)cc4)CC3)nc(OCC(F)(F)F)n2)cc1)C(=O)O)C1CCCCC1 [Compound 1476]	0.01 to 10
O=C(NCC1CCOCC1)C(=O)NC[C@H](NC(=O)c1ccc(Nc2nc(NC3(c4ccc(Cl)cc4)CC3)nc(OCC(F)(F)F)n2)cc1)C(=O)O [Compound 1477]	0.01 to 10

Structure (SMILES)	EC50 [nM]
CC(C)(CNC(=O)C(=O)Nc1ccc(F)cc1)CNC(=O)c1ccc(Nc2nc(NC3(c4ccc(Cl)cc4)CC3)nc(OCC(F)(F)F)n2)cc1 [Compound 1479]	0.01 to 10
CC(C)(CNC(=O)C(=O)Nc1cccc(CC(=O)O)c1)CNC(=O)c1ccc(Nc2nc(NC3(c4ccc(Cl)cc4)CC3)nc(OCC(F)(F)F)n2)cc1 [Compound 1480]	0.01 to 10
CC(C)(CNC(=O)C(=O)Nc1ccc(CC(=O)O)cc1)CNC(=O)c1ccc(Nc2nc(NC3(c4ccc(Cl)cc4)CC3)nc(OCC(F)(F)F)n2)cc1 [Compound 1481]	0.01 to 10
CC(C)(CNC(=O)C(=O)Nc1cccc(CCC(=O)O)c1)CNC(=O)c1ccc(Nc2nc(NC3(c4ccc(Cl)cc4)CC3)nc(OCC(F)(F)F)n2)cc1 [Compound 1482]	0.01 to 10
CC(C)(CNC(=O)C(=O)Nc1ccc(CCC(=O)O)cc1)CNC(=O)c1ccc(Nc2nc(NC3(c4ccc(Cl)cc4)CC3)nc(OCC(F)(F)F)n2)cc1 [Compound 1483]	0.01 to 10
CC(C)(CNC(=O)C(=O)Nc1cccc(C(=O)O)c1)CNC(=O)c1ccc(Nc2nc(NC3(c4ccc(Cl)cc4)CC3)nc(OCC(F)(F)F)n2)cc1 [Compound 1485]	0.01 to 10
CC(C)OC(=O)c1ccc(-c2ccc(NC(=O)C(=O)NCC(C)(C)CNC(=O)c3ccc(Nc4nc(NC5(c6ccc(Cl)cc6)CC5)nc(OCC(F)(F)F)n4)cc3)cc2)cc1 [Compound 1488]	0.01 to 10
CC(C)(CNC(=O)C(=O)Nc1cccc(-c2nn[nH]n2)c1)CNC(=O)c1ccc(Nc2nc(NC3(c4ccc(Cl)cc4)CC3)nc(OCC(F)(F)F)n2)cc1 [Compound 1489]	0.01 to 10
CC(C)(CNC(=O)C(=O)Nc1ccc(Oc2nn[nH]n2)cc1)CNC(=O)c1ccc(Nc2nc(NC3(c4ccc(Cl)cc4)CC3)nc(OCC(F)(F)F)n2)cc1 [Compound 1490]	0.01 to 10
CC(C)OC(=O)c1cccc(-c2ccc(NC(=O)C(=O)NCC(C)(C)CNC(=O)c3ccc(Nc4nc(NC5(c6ccc(Cl)cc6)CC5)nc(OCC(F)(F)F)n4)cc3)cc2)c1 [Compound 1491]	0.01 to 10
O=C(NCC1CC1)C(=O)NCC1(CNC(=O)c2ccc(Nc3nc(NC4(c5ccc(Cl)cc5)CC4)nc(OCC(F)(F)F)n3)cc2)CC1 [Compound 1493]	0.01 to 10
O=C(Nc1ccc(Oc2nn[nH]n2)cc1)C(=O)NC1CCCC1CNC(=O)c1ccc(Nc2nc(NC3(c4ccc(Cl)cc4)CC3)nc(OCC(F)(F)F)n2)cc1 (stereo not shown) [Compound 1494]	0.01 to 10
CC(C)(CNC(=O)C(=O)Nc1ccc(-c2nn[nH]n2)cc1)CNC(=O)c1ccc(Nc2nc(NC3(c4ccc(Cl)cc4)CC3)nc(OCC(F)(F)F)n2)cc1 [Compound 1495]	0.01 to 10
CC(C)(CNC(=O)C(=O)Nc1ccc(O)cc1)CNC(=O)c1ccc(Nc2nc(NCc3ccc(O)cc3)nc(OCC(F)(F)F)n2)cc1 [Compound 1496]	0.01 to 10
COC(=O)[C@H](CCNC(=O)C(=O)Nc1cccc(Cl)c1)NC(=O)c1ccc(Nc2nc(NC3(c4ccc(Cl)cc4)CC3)nc(OCC(F)(F)F)n2)cc1 [Compound 1499]	0.01 to 10
O=C(NCC[C@H](NC(=O)c1ccc(Nc2nc(NC3(c4ccc(Cl)cc4)CC3)nc(OCC(F)(F)F)n2)cc1)C(=O)O)C(=O)Nc1cccc(Cl)c1 [Compound 1500]	0.01 to 10
COC(=O)[C@H](CCNC(=O)C(=O)Nc1ccc(F)cc1F)NC(=O)c1ccc(Nc2nc(NC3(c4ccc(Cl)cc4)CC3)nc(OCC(F)(F)F)n2)cc1 [Compound 1501]	0.01 to 10
O=C(NCC[C@H](NC(=O)c1ccc(Nc2nc(NC3(c4ccc(Cl)cc4)CC3)nc(OCC(F)(F)F)n2)cc1)C(=O)O)C(=O)Nc1ccc(F)cc1F [Compound 1502]	0.01 to 10
COC(=O)[C@H](CCNC(=O)C(=O)Nc1cc(F)ccc1F)NC(=O)c1ccc(Nc2nc(NC3(c4ccc(Cl)cc4)CC3)nc(OCC(F)(F)F)n2)cc1 [Compound 1503]	0.01 to 10
COC(=O)[C@H](CCNC(=O)C(=O)Nc1cc(F)c(F)c(F)c1)NC(=O)c1ccc(Nc2nc(NC3(c4ccc(Cl)cc4)CC3)nc(OCC(F)(F)F)n2)cc1 [Compound 1504]	0.01 to 10
COC(=O)[C@H](CCNC(=O)C(=O)Nc1ccc(F)c(F)c1)NC(=O)c1ccc(Nc2nc(NC3(c4ccc(Cl)cc4)CC3)nc(OCC(F)(F)F)n2)cc1 [Compound 1505]	0.01 to 10
COC(=O)[C@H](CCNC(=O)C(=O)Nc1cc(F)cc(F)c1)NC(=O)c1ccc(Nc2nc(NC3(c4ccc(Cl)cc4)CC3)nc(OCC(F)(F)F)n2)cc1 [Compound 1506]	0.01 to 10
O=C(NCC[C@H](NC(=O)c1ccc(Nc2nc(NC3(c4ccc(Cl)cc4)CC3)nc(OCC(F)(F)F)n2)cc1)C(=O)O)C(=O)Nc1cc(F)cc(F)c1 [Compound 1507]	0.01 to 10
COC(=O)[C@H](CCNC(=O)C(=O)Nc1ccc(F)c(F)c1F)NC(=O)c1ccc(Nc2nc(NC3(c4ccc(Cl)cc4)CC3)nc(OCC(F)(F)F)n2)cc1 [Compound 1508]	0.01 to 10
